Measurements from patent publication US9689043B2 (CHUNGBUK NATIONAL UNIVERSITY INDUSTRY—ACADEMIC COOPERATION …, priority 2012, dated 2017).

Tested on: T24 human bladder cancer cells
Assay: Cell viability assay (MTS) in transfected T24 cells incubated with drugs
Type: cell-based
Protocol: T24 human bladder cancer cells were purchased from American Type Culture Collection (ATCC, Manassas, Va.) and maintained in RPMI1640 media (Invitrogen, Carlsbad, Calif.) with 10% FBS and 1% Penicillin/Streptomycin at 37° C. under 5% CO2. T24 cells at ˜80% confluence were transiently transfected with expressing constructs or small interfering RNAs (siRNAs) of EGFR and S100A9 using Lipofactamine 2000. For S100A9 overexpression, pCMV-Sports6-S100A9 and vector constructs were kindly provided by Dr. A. Moon (Duksung University, Korea). As transfection controls, empty (Ctrl) or NON-TARGET control siRNAs (siCtrl) were used.
Cell viability was determined using MTS reagents as instructed by the manufacturer's protocol (Promega Corporation, Madison, Wis.).

COc1cc2ncnc(Nc3ccc(F)c(Cl)c3)c2cc1OCCCN1CCOCC1 [Iressa, gefitinib]
Cell viability (T24 cells, EGFR inhibition with Iressa (FIG. 6, line 2)): significantly reduced viability
Chemo-sensitivity to cisplatin (T24 cells, EGFR inhibition with Iressa plus cisplatin (FIG. 6, line 2)): enhanced chemo-sensitivity to cisplatin
Chemo-sensitivity to cisplatin (T24 cells, Iressa combined with S100A9 silencing by siRNA, plus cisplatin (FIG. 6, line 4)): synergistically enhanced chemo-sensitivity

N.N.[Cl][Pt][Cl] [cisplatin]
Cisplatin-induced apoptosis / viability (EGFR overexpressing T24 cells, 10 μM cisplatin, serum free medium): did not show significant apoptosis until 24 h-treatment
